Target: T1, lck enzyme (Homo sapiens, UniProt P06239)
T1 construct: The lck enzyme comprises the entire lck molecule except the first nine amino acids which are replaced by an His-tag; His-tag (N); made in house
Experiment: Non-Radioactive Kinase Assay (lck)
Assay type: biochemical
Conditions: mean values of two independent experiments
Experimental: The lck enzyme comprises the entire lck molecule except the first nine amino acids which are replaced by an His-tag for purification purposes. The enzyme is affinity purified.
The reaction is started by the addition of 50 μl 500 μM ATP (in 10 mM MgAc2) and is performed at room temperature.
The solution is incubated for one hour at room temperature and the supernatant discarded. The well is washed twice with 300 μl PBS.

T1 sequence (P06239 10-509 limits assumed, species assumed): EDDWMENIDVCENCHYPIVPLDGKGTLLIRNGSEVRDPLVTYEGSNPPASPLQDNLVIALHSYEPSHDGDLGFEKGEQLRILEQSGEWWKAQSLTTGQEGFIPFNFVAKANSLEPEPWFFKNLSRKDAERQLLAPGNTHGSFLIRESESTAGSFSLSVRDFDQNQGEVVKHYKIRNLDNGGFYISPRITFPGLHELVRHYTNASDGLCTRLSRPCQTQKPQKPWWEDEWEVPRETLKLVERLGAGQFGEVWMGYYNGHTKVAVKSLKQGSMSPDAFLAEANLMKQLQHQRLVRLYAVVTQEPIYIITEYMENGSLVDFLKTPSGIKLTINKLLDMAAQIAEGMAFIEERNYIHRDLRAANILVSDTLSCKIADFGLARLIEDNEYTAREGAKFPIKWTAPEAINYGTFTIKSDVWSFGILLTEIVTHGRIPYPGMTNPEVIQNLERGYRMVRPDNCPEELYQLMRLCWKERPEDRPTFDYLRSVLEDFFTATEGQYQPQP

Q: For COC(=O)c1ccc2c(c1)NC(=O)/C2=C(\Nc1ccc(N(C)C(=O)CN(C)C)cc1)c1ccccc1 [(AI), (Z)-3-(1-(4-(N-(dimethylaminomethylcarbonyl)-N-methyl-amino)-phenylamino)-1-phenyl-methylene)-6-methoxycarbonyl-2-indolinone], which IC50 is on record?
A: 0.036 µM
